The structures appear in SMILES notation.

From patent US9107954B2, “Bivalent ligands for the treatment of neurological disorders” (Virginia Commonwealth University, priority 2012, dated 2015) come the findings set out here.

In test [1] the target is CCR5 (Homo sapiens (Human), UniProt P51681). Kind of test: Calcium mobilization assay in MOLT-4/CCR5 cells, RANTES-stimulated (Example 1). It counts as cell-based. The conditions noted are these: CCR5/MOLT-4 cells. On the procedure:
The ligands were first tested with various doses (in the range of 0.1 nM to 1 μM) for possible agonist activity. The protocol was the same for the following antagonism study, except no CCL5 (RANTES) was added. MOLT-4/CCR5 cells were plated in black 96-well plates with transparent bottom (Greinier Bio-one) at 100,000 cells per well in 50:1 HBSS:HEPES assay buffer. They were incubated for 1 hour at 37° C. and 5% CO2 with control buffer or varying concentration of ligand for a total volume of 130 μL per well. Cells were then incubated with 50 μL of Fluo-4-AM loading buffer (40 μL 2 μM Fluo-4 dye, 100 μL 2.5 mM probenacid, in 5 mL assay buffer) for an additional hour. Then 20μL 200 nM RANTES solution in assay buffer or assay buffer alone were added to the wells right before changes in Ca^2+ concentration were monitored by RFU for 90 seconds using a microplate reader (FlexStation3, Molecular Devices). Peak values were obtained using SoftMaxPro software (Molecular Devices) and non-linear regression curves were generated using Prism (GraphPad) to calculate IC50 values.

Test [2] relates to R5-tropic HIV-1SF162 in primary human astrocytes. Put plainly: HIV-1SF162 infectivity, Tat luciferase reporter assay in primary human astrocytes. It counts as cell-based. On the procedure:
Primary human astrocytes (ScienCell catalog #1901) were cultured in 24-well plates and transfected with the plasmid pBlue3′LTR-luc (NIH AIDS Research and Reference Reagent Program) using Lipofectamine 2000 (Invitrogen) followed by infection with HIV-1. After 18-20 h cells were rinsed twice in 1×PBS then lysed in Cell Culture Lysis Reagent (Promega) and relative Tat protein expression was determined by measuring luciferase activity using the Luciferase Assay System (Promega; catalog # E1500). Light units were measured using a PHERAstar FS plate reader (BMG Labtech).
Primary human astroglial cells were infected by incubation with the neurotropic HIV-1 strain SF162. A concentration of HIV-1 p24 50 pg/10^6 cells was used, and a no virus condition served as a negative control. Viral stocks were quantified by assaying for HIV-1 p24 (Alliance p24 Antigen ELISA Kit; Advanced Bioscience, Kensington, Md.).
HIV-1SF162 infectivity of human astroglia was determined based on the relative amount of Tat protein expressed by the virus using a luciferase-based reporter assay. Reporters under the control of the long terminal repeat (LTR) viral promoter are a robust means of measuring HIV-1 infection, since the LTR is activated by HIV-1 Tat, which is only expressed by infected cells.
As the bivalent ligand 1 has been designed as a molecular probe to study the underlying mechanisms of opioid-enhanced NeuroAIDS by targeting the MOR-CCR5 heterodimerization, a luciferase-based HIV-1SF162) infection assay measuring the relative transactivator of transcription (Tat) protein expression in human astrocytes was performed (FIG. 15). Tat is encoded by HIV-1 and is the first protein to be produced after HIV-1 infection. Thus, Tat expression level is directly proportioned to the extent of HIV-1 invasion. Astrocytes were chosen based on the following facts: first, astrocytes express both the MOR and the CCR5. Second, the human blood-brain barrier (BBB) is composed of interacting adjacent cerebral endothelial cells (CECs) and astrocytes, which makes astrocytes a readily accessible target during the course of HIV infection. Thirdly, during NeuroAIDS development astroglia are important cellular sites within the CNS where opioids synergistically potentiate the pathophysiological effects of HIV-1 infection.
A general note: In a reporter assay the amount or activity of a reporter protein is the signal.

Test [3] concerns CCR5. Kind of test: Flow cytometry of CCR5 immunofluorescence in HIV-1 infected primary human astrocytes. It counts as cell-based. The following applies: maraviroc co-exposure; bivalent ligand ± morphine. On the procedure:
(§1) MOR and CCR5 immunoreactivity were detected by direct immunofluorescence in astroglial cells by flow cytometric analysis. Cells were washed in phosphate-buffered saline (PBS)-0.1% bovine serum albumin (BSA) buffer and incubated with primary MOR antibody followed by a secondary antibody conjugated to allophycocyanin (APC) (Biolegend, Inc; catalog #408001) and Alexa Fluor® 488 conjugated anti-mouse CD195 (CCR5) antibody (Biolegend, Inc; catalog #107008) in permeabilization buffer (PBS-0.1% BSA-0.1% Triton X-100) at a 1:500 dilution. Fluorescence was measured from 10,000 gated cells per treatment in each experiment using a FACSCanto II flow cytometer (BD Biosciences, San Jose, Calif.). Auto-fluorescence was compensated by setting the detector voltage to the minimum level that discriminates between auto-fluorescence and specific immunofluorescence in both negative and positive controls. Isotype control antibodies were used to define settings in histogram plot analyses.
(§2) We quantitatively analyzed the effect of MVC and the bivalent compound on CCR5 and MOR expression levels in virally infected astrocytes by flow cytometry. […] Approximately 20,000 events were analyzed per treatment condition in each experiment and size discrimination was used as a crude method for viability determination.
(In general: A flow cytometer gives signals particle by particle.)

The subject of a further test is CCR5 and MOR. Put plainly: Flow cytometry of CCR5 and MOR co-localization in HIV-1 infected primary human astrocytes. It counts as cell-based. The protocol: as §1, §2
A further test relates to TNF-α. Put plainly: Cytokine release ELISA, HIV-1 infected astroglia supernatant: TNF-α. It counts as cell-based, human. The conditions noted are these: 18-20 h; bivalent ligand ± morphine. The protocol:
(§3) The protein levels of the cytokines TNF-α, IL-6, IL-1β and the chemokine RANTES were measured by ELISA (Quantikine kits; R&D Systems Minneapolis, Minn.).
(§4) After 18-20 h exposure, supernatant was removed and analyzed by ELISA to quantitatively analyze the release of the cytokines TNF-α, IL-1β and IL-6 and the chemokine RANTES.
(ELISA stands for enzyme-linked immunosorbent assay.)

The test system of another test is RANTES. Put plainly: Chemokine release ELISA, HIV-1 infected astroglia supernatant: RANTES. It counts as cell-based, human. The conditions noted are these: 18-20 h; bivalent ligand ± morphine. On the procedure: as §3, §4
Another test concerns HIV-1 in microglia. Kind of test: HIV-1 entry in microglia (data not shown). It counts as cell-based. The following applies: at the concentrations used (100 nM).

Sequence of CCR5 (Homo sapiens (Human), UniProt P51681) (P51681 whole entry): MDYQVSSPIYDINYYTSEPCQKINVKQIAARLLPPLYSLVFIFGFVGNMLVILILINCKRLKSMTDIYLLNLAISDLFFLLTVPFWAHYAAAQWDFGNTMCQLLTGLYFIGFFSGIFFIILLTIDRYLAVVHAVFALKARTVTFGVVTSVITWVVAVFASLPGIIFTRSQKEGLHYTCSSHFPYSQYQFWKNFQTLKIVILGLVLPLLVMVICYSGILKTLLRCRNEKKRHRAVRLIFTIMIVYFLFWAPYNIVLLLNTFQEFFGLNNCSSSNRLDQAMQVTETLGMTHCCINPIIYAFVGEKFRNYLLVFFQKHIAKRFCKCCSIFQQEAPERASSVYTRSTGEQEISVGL

Consider `Cc1nnc(C(C)C)n1C1CC2CCC(C1)N2CC[C@H](NC(=O)C1CCC(F)(F)CC1)c1ccc(NC(=O)COCC(=O)NCCCCCCCNC(=O)COCC(=O)N[C@@H]2CC[C@@]3(O)[C@H]4Cc5ccc(O)c6c5[C@@]3(CCN4CC3CC3)[C@H]2O6)cc1` (stereo partly shown) [bivalent ligand 1], for which, at CCR5 [1] (RANTES, read-out: calcium flux inhibition IC50), the IC50 (commonly the midpoint of a concentration-inhibition curve) amounted to 231 ± 88 nM. At CCR5 [1] (no RANTES added), the “agonism in calcium mobilization assay” value is recorded as “no agonism”. The “potency in HIV-1 entry inhibition relative to the mixture of maraviroc and naltrexone” value in test [2] is listed as “two times”. Besides, in test [2] (100 nM), the “decrease in Tat expression compared to maraviroc alone or the combination of maraviroc and naltrexone” value was “two-fold”. Also, in test [2] (100 nM + morphine 500 nM), the “fold decrease in Tat expression compared to MVC with NTX plus morphine, bivalent compound plus morphine” value worked out at 4.4 fold and the “fold decrease in Tat expression compared to R5 plus MVC, bivalent compound plus morphine” value worked out at 2.9 fold. Besides, the “fold decrease in Tat expression compared to R5 HIV-1 alone” value in test [2] (100 nM, 18-20 h post-infection, no morphine) is given as 4.4 fold. Also, the “fold decrease in virus entry compared to maraviroc with morphine” value in test [2] (100 nM, morphine 500 nM, Example 3) stood at 7 fold. For the same molecule, in test [2] (100 nM, without morphine, Example 3), the “fold decrease in virus entry compared to maraviroc alone” value amounted to 3.3 fold. Further, the “fold decrease in Tat expression compared to R5 plus MVC” value in test [2] (bivalent ligand 100 nM, no morphine) amounted to 2.0 fold. In addition, the “effect of morphine stimulation on potency” value in test [2] (morphine 500 nM) is listed as “no effect”. The “fold decrease in CCR5 expression levels compared to R5 HIV-1” value in the test on CCR5 [3] was determined as 1.8 fold. Also, the “fold increase in astrocytes expressing both CCR5 and MOR compared to R5 HIV-1 alone” value in the test with CCR5 and MOR is listed as 1.6 fold. The “fold decrease in TNF-α release compared to R5 HIV-1 alone” value with TNF-α is given as 2.0 fold. In addition, in the test with RANTES, the “fold decrease in RANTES release compared to R5 HIV-1 alone” value stood at 1.5 fold. Besides, the “antiviral effect in microglia” value in the test on HIV-1 in microglia was “only detected in astrocytes and not in microglia”.
